# From PubChem BioAssay AID248 (DTP/NCI, 2004)
# Several values for one entry are separate records, joined by “and”; a condition that tells them apart may be missing. Equal values may be shown once. Inconclusive results and toxic doses are left out.
# System: L1210 leukemia ip in BDF1 mice, survival T/C
# Test: NCI In Vivo Anticancer Drug Screen. Data for tumor model L1210 Leukemia (intraperitoneal) in B6D2F1 (BDF1) mice
# Details: endpoint: mean survival time, higher = longer survival
# Outline: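 Tumor was transplanted into mice, which were then dosed with test compound or vehicle alone. Survival was recorded for each group, and the treated figure was expressed relative to the control figure.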
# [1] = dose: 100.0 mg/kg/injection, schedule: Q01DX001 (ip), vehicle: carboxymethylcellulose (CMC)
# [2] = dose: 200.0 mg/kg/injection, schedule: Q01DX001 (ip), vehicle: carboxymethylcellulose (CMC)
# [3] = dose: 400.0 mg/kg/injection, schedule: Q01DX001 (ip), vehicle: carboxymethylcellulose (CMC)
# [4] = dose: 400.0 mg/kg/injection, schedule: Q04DX002 (ip), vehicle: saline with Tween-80
# [5] = dose: 100.0 mg/kg/injection, schedule: Q04DX002 (ip), vehicle: Klucel (hydroxypropylcellulose) (HPC)
# [6] = dose: 200.0 mg/kg/injection, schedule: Q04DX002 (ip), vehicle: Klucel (hydroxypropylcellulose) (HPC)
# [7] = dose: 400.0 mg/kg/injection, schedule: Q04DX002 (ip), vehicle: Klucel (hydroxypropylcellulose) (HPC)
# [8] = dose: 200.0 mg/kg/injection, schedule: Q01DX009 (ip), vehicle: saline with Tween-80
# [9] = dose: 50.0 mg/kg/injection, schedule: Q01DX001 (ip), vehicle: carboxymethylcellulose (CMC)
# [10] = dose: 100.0 mg/kg/injection, schedule: Q01DX001 (ip), vehicle: saline with Tween-80
# [11] = dose: 200.0 mg/kg/injection, schedule: Q01DX001 (ip), vehicle: saline with Tween-80
# [12] = dose: 400.0 mg/kg/injection, schedule: Q01DX001 (ip), vehicle: saline with Tween-80
# [13] = dose: 75.0 mg/kg/injection, schedule: Q01DX001 (ip), vehicle: saline
smiles,measurement,setting,value
COC1N(C2CC(O)C(CO)O2)C(=O)NC(=O)C1(F)Br (configuration not stated),T/C,"dose: 5.0 mg/kg/injection, schedule: Q01DX009 (ip), vehicle: saline",123 % of control
same,T/C,"dose: 10.0 mg/kg/injection, schedule: Q01DX009 (ip), vehicle: saline",112 % of control
same,T/C,"dose: 20.0 mg/kg/injection, schedule: Q01DX009 (ip), vehicle: saline",122 % of control
same,T/C,"dose: 20.0 mg/kg/injection, schedule: Q04DX003 (ip), vehicle: saline",105 % of control
same,T/C,"dose: 40.0 mg/kg/injection, schedule: Q04DX003 (ip), vehicle: saline",102 % of control
same,T/C,"dose: 50.0 mg/kg/injection, schedule: Q01DX009 (ip), vehicle: saline",103 % of control
same,T/C,"dose: 80.0 mg/kg/injection, schedule: Q04DX003 (ip), vehicle: saline",117 % of control
same,T/C,"dose: 100.0 mg/kg/injection, schedule: Q01DX009 (ip), vehicle: saline",98 % of control
same,T/C,"dose: 160.0 mg/kg/injection, schedule: Q04DX003 (ip), vehicle: saline",108 % of control
same,T/C,"dose: 200.0 mg/kg/injection, schedule: Q01DX009 (ip), vehicle: saline",102 % of control
same,T/C,"dose: 400.0 mg/kg/injection, schedule: Q01DX009 (ip), vehicle: saline",94 % of control
CCOP(=S)(N/N=C1/CCCC(C)C1)OCC (configuration not stated),T/C,[1],93 % of control
same,T/C,[2],93 % of control
same,T/C,[3],97 % of control
Fc1ccc(F)c(-c2c(F)ccc(F)c2F)c1F,T/C,"dose: 25.6 mg/kg/injection, schedule: Q04DX002 (ip), vehicle: saline with Tween-80",100 % of control
same,T/C,"dose: 64.0 mg/kg/injection, schedule: Q04DX002 (ip), vehicle: saline with Tween-80",113 % of control
same,T/C,"dose: 160.0 mg/kg/injection, schedule: Q04DX002 (ip), vehicle: saline with Tween-80",95 % of control
same,T/C,[4],103 % of control
CCOC1OC(c2ccccc2)=NS(=O)(=O)C1(C)C (configuration not stated),T/C,[5],103 % of control
same,T/C,[6],106 % of control
same,T/C,[7],103 % of control
CC(C)/C=C/C1(C(C)C)C(=O)NC(=O)NC1=O,T/C,"dose: 75.0 mg/kg/injection, schedule: Q01DX001 (ip), vehicle: carboxymethylcellulose (CMC)",94 % of control
same,T/C,"dose: 150.0 mg/kg/injection, schedule: Q01DX001 (ip), vehicle: carboxymethylcellulose (CMC)",94 % of control
CCCOC(C)CC(c1ccccc1)(c1ccccc1)c1ccccc1 (configuration not stated),T/C,"dose: 12.5 mg/kg/injection, schedule: Q01DX009 (ip), vehicle: saline with Tween-80",98 % of control
same,T/C,"dose: 25.0 mg/kg/injection, schedule: Q01DX009 (ip), vehicle: saline with Tween-80",95 % of control
same,T/C,"dose: 50.0 mg/kg/injection, schedule: Q01DX009 (ip), vehicle: saline with Tween-80",91 % of control
same,T/C,[8],90 % of control
O=C(Nc1ccc(C2=NCCN2)cc1)Nc1cccc(NC(=S)Nc2ccc(C3=NCCN3)cc2)c1,T/C,"dose: 1.88 mg/kg/injection, schedule: Q01DX Z (ip), vehicle: saline",95 % of control
same,T/C,"dose: 3.75 mg/kg/injection, schedule: Q01DX Z (ip), vehicle: saline",103 % of control
same,T/C,"dose: 7.5 mg/kg/injection, schedule: Q01DX Z (ip), vehicle: saline",113 % of control
same,T/C,"dose: 15.0 mg/kg/injection, schedule: Q01DX Z (ip), vehicle: saline",150 % of control
same,T/C,"dose: 15.0 mg/kg/injection, schedule: Q01DX Z (oral), vehicle: saline",97 % of control
same,T/C,"dose: 30.0 mg/kg/injection, schedule: Q01DX Z (ip), vehicle: saline",150 % of control
same,T/C,"dose: 30.0 mg/kg/injection, schedule: Q01DX Z (oral), vehicle: saline",100 % of control
same,T/C,"dose: 60.0 mg/kg/injection, schedule: Q01DX Z (oral), vehicle: saline",97 % of control
same,T/C,"dose: 120.0 mg/kg/injection, schedule: Q01DX Z (oral), vehicle: saline",107 % of control
Nc1ccc(C(=O)/C=C/c2ccccn2)cc1,T/C,[9],97 % of control
same,T/C,[1],103 % of control
same,T/C,[2],105 % of control
same,T/C,[3],103 % of control
CC(=O)O[C@@H]1[C@H]2O[C@H]2[C@H]2O[C@@]2(COC(=O)c2ccccc2)[C@H]1OC(C)=O,T/C,"dose: 100.0 mg/kg/injection, schedule: Q01DX015 (ip), vehicle: carboxymethylcellulose (CMC)",108 % of control
same,T/C,"dose: 200.0 mg/kg/injection, schedule: Q01DX015 (ip), vehicle: carboxymethylcellulose (CMC)",107 % of control
same,T/C,"dose: 400.0 mg/kg/injection, schedule: Q01DX015 (ip), vehicle: carboxymethylcellulose (CMC)",90 % of control
Oc1ccc(CCNCc2cc3c(cc2Br)OCO3)cc1,T/C,"dose: 50.0 mg/kg/injection, schedule: Q01DX009 (ip), vehicle: Klucel (hydroxypropylcellulose) (HPC)",101 % of control
same,T/C,"dose: 100.0 mg/kg/injection, schedule: Q01DX009 (ip), vehicle: Klucel (hydroxypropylcellulose) (HPC)",96 % of control
same,T/C,"dose: 200.0 mg/kg/injection, schedule: Q01DX009 (ip), vehicle: Klucel (hydroxypropylcellulose) (HPC)",108 % of control
O=S(=O)(O)c1ccc(-c2ccc([As](=O)(O)O)cc2)cc1,T/C,"dose: 100.0 mg/kg/injection, schedule: Q04DX002 (ip), vehicle: saline with Tween-80",95 % of control
same,T/C,"dose: 200.0 mg/kg/injection, schedule: Q04DX002 (ip), vehicle: saline with Tween-80",103 % of control
same,T/C,[4],87 % of control
CCCC(C)CC(=O)CC(C)=O (configuration not stated),T/C,[10],93 % of control
same,T/C,[11],95 % of control
same,T/C,[12],95 % of control
CCCCOC(=O)Nc1cccc(O)c1,T/C,"dose: 100.0 mg/kg/injection, schedule: Q01DX009 (ip), vehicle: saline with Tween-80",92 % of control
same,T/C,[8],87 % of control
CN(C)CCNc1ccccn1,T/C,[13],98 % of control
same,T/C,"dose: 150.0 mg/kg/injection, schedule: Q01DX001 (ip), vehicle: saline",104 % of control
NC(=O)NC1c2ccccc2-c2ccccc21,T/C,[9],93 % of control
same,T/C,[1],93 % of control
same,T/C,[2],93 % of control
same,T/C,[3],93 % of control
C[N+]1(C2CCCCC2)CCCCC1,T/C,"dose: 10.0 mg/kg/injection, schedule: Q01DX001 (ip), vehicle: acetone",96 % of control
same,T/C,"dose: 10.0 mg/kg/injection, schedule: Q01DX001 (ip), vehicle: saline",98 % of control
same,T/C,"dose: 20.0 mg/kg/injection, schedule: Q01DX001 (ip), vehicle: acetone",95 % of control
same,T/C,"dose: 20.0 mg/kg/injection, schedule: Q01DX001 (ip), vehicle: saline",95 % of control
same,T/C,"dose: 40.0 mg/kg/injection, schedule: Q01DX001 (ip), vehicle: acetone",102 % of control
same,T/C,"dose: 40.0 mg/kg/injection, schedule: Q01DX001 (ip), vehicle: saline",93 % of control
same,T/C,[13],101 % of control
Cc1nc(N)[nH]c(=O)c1CCCC#N,T/C,"dose: 100.0 mg/kg/injection, schedule: Q01DX001 (ip), vehicle: Klucel (hydroxypropylcellulose) (HPC)",104 % of control
same,T/C,[5],97 % of control and 109 % of control
same,T/C,"dose: 100.0 mg/kg/injection, schedule: Q04DX003 (ip), vehicle: Klucel (hydroxypropylcellulose) (HPC)",101 % of control
same,T/C,"dose: 200.0 mg/kg/injection, schedule: Q01DX001 (ip), vehicle: Klucel (hydroxypropylcellulose) (HPC)",98 % of control
same,T/C,[6],93 % of control and 103 % of control
same,T/C,"dose: 200.0 mg/kg/injection, schedule: Q04DX003 (ip), vehicle: Klucel (hydroxypropylcellulose) (HPC)",112 % of control
same,T/C,"dose: 400.0 mg/kg/injection, schedule: Q01DX001 (ip), vehicle: Klucel (hydroxypropylcellulose) (HPC)",100 % of control
same,T/C,[7],104 % of control and 90 % of control
CNC(=O)CCC(NS(=O)(=O)c1ccc(C)cc1)C(=O)O (configuration not stated),T/C,[10],100 % of control
same,T/C,[11],95 % of control
same,T/C,[12],97 % of control
O=S1(=O)CC2C1C1(Cl)C(Cl)=C(Cl)C2(Cl)C1(Cl)Cl (configuration not stated),T/C,[9],100 % of control
same,T/C,[1],91 % of control
same,T/C,[2],96 % of control
same,T/C,[3],96 % of control
